According to patent US12687539B2 (priority 2019, dated 2026):

Assays:
rat = details: in vivo; cited from earlier work
[1] = system: DAS5G11E7 monoclonal antibody; type: binding, mouse

For `CC(=O)OC[C@]12CCC(C)=C[C@H]1O[C@@H]1[C@H](O)[C@@H](OC(C)=O)[C@@]2(C)[C@]12CO2` [DAS, diacetoxyscirpenol], the LDS (rat) is listed as 0.75 mg/kg and the Cross reactivity [1] is listed as 100%.
